How the values were obtained:
Assay in all cases: relative viability (nuclei count vs DMSO), 5 days (fraction); higher = more cells survive
R406 + AZD7762 = compound: COc1cc(Nc2ncc(F)c(Nc3ccc4c(n3)NC(=O)C(C)(C)O4)n2)cc(OC)c1OC [R406] + NC(=O)Nc1cc(-c2cccc(F)c2)sc1C(=O)N[C@H]1CCCNC1 [AZD7762] (partner 0.2 µM)
In short: (§1)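 After 5 days of treatment, lung cancer cells in 1536-well plates were fixed and stained in a single step (final 0.05% Triton X-100, 1% formaldehyde, 1 ug/ml Hoechst) and their nuclei counted on 4× images. Treatment had been applied by pin tool the day after seeding as one drug alone or as a fixed anchor-drug dose with five library-drug doses (not always all listed) in √10 steps. Relative viability is the nuclei count of treated wells divided by that of vehicle wells, and values are medians of duplicate plates.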

Daporinad + Phenformin = compound: O=C(/C=C/c1cccnc1)NCCCCC1CCN(C(=O)c2ccccc2)CC1 [Daporinad] + N=C(N)NC(=N)NCCc1ccccc1 [Phenformin] (partner 250 µM)
In short: as §1

R406 + Tozasertib = compound: COc1cc(Nc2ncc(F)c(Nc3ccc4c(n3)NC(=O)C(C)(C)O4)n2)cc(OC)c1OC [R406] + Cc1cc(Nc2cc(N3CCN(C)CC3)nc(Sc3ccc(NC(=O)C4CC4)cc3)n2)n[nH]1 [Tozasertib] (partner 0.1 µM)
In short: as §1

R406 + Pemetrexed = compound: COc1cc(Nc2ncc(F)c(Nc3ccc4c(n3)NC(=O)C(C)(C)O4)n2)cc(OC)c1OC [R406] + Nc1nc2[nH]cc(CCc3ccc(C(=O)N[C@@H](CCC(=O)O)C(=O)O)cc3)c2c(=O)[nH]1 [Pemetrexed] (partner 0.2 µM)
In short: as §1

Cell Line	relative viability (R406 + AZD7762; first compound 0.08 µM)	relative viability (R406 + AZD7762; first compound 0.253 µM)	relative viability (R406 + AZD7762; first compound 0.8 µM)	relative viability (R406 + AZD7762; first compound 2.53 µM)	relative viability (R406 + AZD7762; first compound 8 µM)	relative viability (Daporinad + Phenformin; first compound 0.0005 µM)	relative viability (Daporinad + Phenformin; first compound 0.001581 µM)	relative viability (Daporinad + Phenformin; first compound 0.005 µM)	relative viability (Daporinad + Phenformin; first compound 0.01581 µM)	relative viability (R406 + Tozasertib; first compound 0.08 µM)	relative viability (R406 + Tozasertib; first compound 0.253 µM)	relative viability (R406 + Tozasertib; first compound 0.8 µM)	relative viability (R406 + Tozasertib; first compound 2.53 µM)	relative viability (R406 + Tozasertib; first compound 8 µM)	relative viability (R406 + Pemetrexed; first compound 0.08 µM)	relative viability (R406 + Pemetrexed; first compound 0.253 µM)	relative viability (R406 + Pemetrexed; first compound 0.8 µM)	relative viability (R406 + Pemetrexed; first compound 2.53 µM)	relative viability (R406 + Pemetrexed; first compound 8 µM)
LU99A	0.317	0.358	0.39	0.413	0.283	0.833	0.981	0.946	0.93	0.274	0.312	0.246	0.313	0.265	0.188	0.183	0.224	0.187	0.172
LXF-289	1.03	1.19	1.11	0.88	0.762	0.467	0.555	0.559	0.579	0.192	0.178	0.197	0.183	0.067	0.874	0.912	0.908	0.887	0.725
NCI-H23	0.215	0.265	0.283	0.25	0.269	0.726	0.773	0.829	0.399	0.35	0.394	0.511		0.148	0.565	0.806	0.782	0.17	0.248
NCI-H322M	0.453	0.54	0.588	0.36	0.423	0.793	0.726	0.686	0.436	0.496	0.465	0.489	0.343	0.283	0.532	0.596	0.63	0.466	0.396
NCI-H358	0.502	0.472	0.509	0.272	0.217	0.297	0.404	0.445	0.303	0.107	0.116	0.081	0.109	0.0818	0.167	0.17	0.168	0.146	0.145
NCI-H441	1.03	1.03	1.26	0.953	0.958	0.813	0.82	0.883	0.734	0.676	0.72	0.635	0.524	0.265	0.219	0.261	0.263	0.257	0.234
NCI-H460	0.651	0.829	0.69	0.61	0.762	0.472	0.575	0.533	0.523	0.493	0.486	0.481	0.344	0.264	0.064	0.0593	0.0591	0.0591	0.0556
NCI-H522	0.914	0.921	0.813	0.823	0.765	0.654	0.758	0.695	0.682	0.467	0.527	0.562	0.582	0.433	0.832	1.04	1.09	0.937	0.747
NCI-H596	1.08	1.1	0.977	0.825	0.836	0.627	0.749	0.774	0.746	0.868	1.01	1.05	0.513	0.267	0.527	0.554	0.428	0.392	0.324
NCI-H647	0.373	0.419	0.467	0.413	0.29	0.534	0.65	0.641	0.643	0.261	0.327	0.26	0.21	0.173	0.172	0.178	0.17	0.0932	0.0585
NCI-H650	0.822	1.16	1.02	0.593	0.788	0.45	0.422	0.522	0.507	0.701	0.885	0.699	0.614	0.599	0.912	1.13	0.953	0.779	0.591
NCI-H838	0.915	1.02	1.04	0.853	0.741	0.551	0.799	0.542	0.415	0.247	0.327	0.248	0.254	0.217	0.257	0.268	0.244	0.226	0.136
NCI-H1355	0.799	0.758	0.747	0.555	0.581	0.454	0.506	0.542	0.508	0.572	0.575	0.558	0.572	0.258	1.09	1.09	1.09	0.982	0.911
NCI-H1395	0.427	0.354	0.351	0.417	0.36	0.431	0.421	0.471	0.482	0.714	0.77	0.734	0.647	0.519	0.865	1.01	0.856	0.865	0.434
NCI-H1437	1.04	1.19	1.13	1.05	1.05	0.349	0.325	0.349	0.362	0.403	0.433	0.409	0.417	0.416	0.297	0.316	0.317	0.259	0.203
NCI-H1651	0.432	0.544	0.513	0.396	0.446	0.299	0.381	0.433	0.329	0.719	0.865	0.641	0.592	0.496	0.475	0.679	0.573	0.548	0.508
NCI-H1666	1.12	0.937	0.893	0.892	0.773	0.586	0.563	0.602	0.562	0.584	0.725	0.582	0.633	0.418	0.825	1.05	0.86	0.718	0.674

Source: the supplement of paper PMC10307832
